Experiments:
mushroom tyrosinase = assay: Tyrosinase activity-inhibitory effect; format: biochemical; conditions: L-tyrosine, 20 minutes at 37° C., absorbance at 490 nm
Method: The tyrosinase activity-inhibitory effect of new material 33 was evaluated. Specifically, tyrosinase and tyrosine derived from mushrooms were obtained from Sigma Chemical. […] Tyrosinase activity was assessed by measuring the absorbance at 490 nm using a microplate reader (Bio-Rad 3550, Richmond, Calif., U.S.A.) after an enzyme reaction for 20 minutes at 37° C.

Mel-Ab cell line = assay: Melanin production-inhibitory effect (Dooley's method); format: cell-based, C57BL/6; conditions: Mel-Ab cells, melanin after 5 days, absorbance at 400 nm
skin = assay: Human repeated insult patch test (HRIPT), skin accumulation stimulation; format: in vivo; design: key to Skin reactivity (ICDRG criteria): −: negative (no response); ±: doubtful or slight erythema, etc.; +: weak reaction (which is accompanied with no phlyctenule), erythema, papule; ++: severe reaction (which is accompanied with phlyctenule), erythema, papule, phlyctenule; +++: strong reaction, bullae reaction; conditions: for Number of subjects with ±, +, or ++ reactivity, 1st: 1st patch; for Number of subjects with ±, +, or ++ reactivity, 2nd: 2nd patch; for Number of subjects with ±, +, or ++ reactivity, 3rd: 3rd patch; for Number of subjects with ±, +, or ++ reactivity, 4th: 4th patch; for Number of subjects with ±, +, or ++ reactivity, 5th: 5th patch; for Number of subjects with ±, +, or ++ reactivity, 6th: 6th patch; for Number of subjects with ±, +, or ++ reactivity, 7th: 7th patch; for Number of subjects with ±, +, or ++ reactivity, 8th: 8th patch; for Average reactivity: 9 patches, 15 subjects, less than 3 is considered stable; for Number of subjects with ±, +, or ++ reactivity, 9th: 9th patch
Method: Human repeated insult patch tests (HRIPT) were performed to confirm the skin accumulation stimulation of the kaempferol3-O-[2-O″-(E)-p-coumaroyl][beta-D-glucopyranosyl-(1→3)-O-alpha-L-rhamnopyranosyl-(1→6)-O-beta-D-glucopyranoside] and to calculate the concentration range available for the skin.
Specifically, 15 healthy adult subjects were randomly selected, and the test composition (the skin composition including an emulsifier, a stabilizer, purified water, etc. in addition to the compound) containing 0.5 wt %, 1 wt %, and 3 wt % of the compound was added dropwise by 20 μl per chamber (IQ chamber, Epitest Ltd, Finland). After 24 hours from patching the upper right part of the back of a subject, it was replaced with the new patch. A total of 9 patches were conducted, three times a week for total 3 weeks, in such manner, the skin reactions before and after patch were examined every time, and the skin reactions until 48 hours after removing the final patch were observed, and the average reactivity was observed.
The skin response was determined according to the criteria of the International Contact Dermatitis Research Group (ICDRG). ‘New material 33’ in the table above is kaempferol3-O-[2-O″-(E)-p-coumaroyl][beta-D-glucopyranosyl-(1→3)-O-alpha-L-rhamnopyranosyl-(1→6)-O-beta-D-glucopyranoside].

C[C@@H]1O[C@@H](OC[C@H]2O[C@@H](Oc3c(-c4ccc(O)cc4)oc4cc(O)cc(O)c4c3=O)[C@H](OC(=O)/C=C/c3ccc(O)cc3)[C@@H](O)[C@@H]2O)[C@H](O)[C@H](O[C@@H]2O[C@H](CO)[C@@H](O)[C@H](O)[C@H]2O)[C@H]1O [new material 33, kaempferol3-O-[2-O″-(E)-p-coumaroyl][beta-D-glucopyranosyl-(1→3)-O-alpha-L-rhamnopyranosyl-(1→6)-O-beta-D-glucopyranoside]]
Tyrosinase activity-inhibitory effect IC50 (mushroom tyrosinase): 11 ppm
Melanin production-inhibitory effect IC50 (Mel-Ab cell line): 15.7 ppm
Skin reactivity (ICDRG criteria) (skin; 0.5 wt %, 1 wt % and 3 wt %, all subjects, all patches): −
Number of subjects with ±, +, or ++ reactivity, 1st (skin; 0.5 wt %, line 1 of 3 (±)): 0 person
Number of subjects with ±, +, or ++ reactivity, 1st (skin; 0.5 wt %, line 2 of 3 (+)): 0 person
Number of subjects with ±, +, or ++ reactivity, 1st (skin; 0.5 wt %, line 3 of 3 (++)): 0 person
Number of subjects with ±, +, or ++ reactivity, 2nd (skin; 0.5 wt %, line 1 of 3 (±)): 0 person
Number of subjects with ±, +, or ++ reactivity, 2nd (skin; 0.5 wt %, line 2 of 3 (+)): 0 person
Number of subjects with ±, +, or ++ reactivity, 2nd (skin; 0.5 wt %, line 3 of 3 (++)): 0 person
Number of subjects with ±, +, or ++ reactivity, 3rd (skin; 0.5 wt %, line 1 of 3 (±)): 0 person
Number of subjects with ±, +, or ++ reactivity, 3rd (skin; 0.5 wt %, line 2 of 3 (+)): 0 person
Number of subjects with ±, +, or ++ reactivity, 3rd (skin; 0.5 wt %, line 3 of 3 (++)): 0 person
Number of subjects with ±, +, or ++ reactivity, 4th (skin; 0.5 wt %, line 1 of 3 (±)): 0 person
Number of subjects with ±, +, or ++ reactivity, 4th (skin; 0.5 wt %, line 2 of 3 (+)): 0 person
Number of subjects with ±, +, or ++ reactivity, 4th (skin; 0.5 wt %, line 3 of 3 (++)): 0 person
Number of subjects with ±, +, or ++ reactivity, 5th (skin; 0.5 wt %, line 1 of 3 (±)): 0 person
Number of subjects with ±, +, or ++ reactivity, 5th (skin; 0.5 wt %, line 2 of 3 (+)): 0 person
Number of subjects with ±, +, or ++ reactivity, 5th (skin; 0.5 wt %, line 3 of 3 (++)): 0 person
Number of subjects with ±, +, or ++ reactivity, 6th (skin; 0.5 wt %, line 1 of 3 (±)): 0 person
Number of subjects with ±, +, or ++ reactivity, 6th (skin; 0.5 wt %, line 2 of 3 (+)): 0 person
Number of subjects with ±, +, or ++ reactivity, 6th (skin; 0.5 wt %, line 3 of 3 (++)): 0 person
Number of subjects with ±, +, or ++ reactivity, 7th (skin; 0.5 wt %, line 1 of 3 (±)): 0 person
Number of subjects with ±, +, or ++ reactivity, 7th (skin; 0.5 wt %, line 2 of 3 (+)): 0 person
Number of subjects with ±, +, or ++ reactivity, 7th (skin; 0.5 wt %, line 3 of 3 (++)): 0 person
Number of subjects with ±, +, or ++ reactivity, 8th (skin; 0.5 wt %, line 1 of 3 (±)): 0 person
Number of subjects with ±, +, or ++ reactivity, 8th (skin; 0.5 wt %, line 2 of 3 (+)): 0 person
Number of subjects with ±, +, or ++ reactivity, 8th (skin; 0.5 wt %, line 3 of 3 (++)): 0 person
Average reactivity (skin; 0.5 wt %): 0
Number of subjects with ±, +, or ++ reactivity, 9th (skin; 0.5 wt %, line 1 of 3 (±)): 0 person
Number of subjects with ±, +, or ++ reactivity, 9th (skin; 0.5 wt %, line 2 of 3 (+)): 0 person
Number of subjects with ±, +, or ++ reactivity, 9th (skin; 0.5 wt %, line 3 of 3 (++)): 0 person
Number of subjects with ±, +, or ++ reactivity, 1st (skin; 1 wt %, line 1 of 3 (±)): 0 person
Number of subjects with ±, +, or ++ reactivity, 1st (skin; 1 wt %, line 2 of 3 (+)): 0 person
Number of subjects with ±, +, or ++ reactivity, 1st (skin; 1 wt %, line 3 of 3 (++)): 0 person
Number of subjects with ±, +, or ++ reactivity, 2nd (skin; 1 wt %, line 1 of 3 (±)): 0 person
Number of subjects with ±, +, or ++ reactivity, 2nd (skin; 1 wt %, line 2 of 3 (+)): 0 person
Number of subjects with ±, +, or ++ reactivity, 2nd (skin; 1 wt %, line 3 of 3 (++)): 0 person
Number of subjects with ±, +, or ++ reactivity, 3rd (skin; 1 wt %, line 1 of 3 (±)): 0 person
Number of subjects with ±, +, or ++ reactivity, 3rd (skin; 1 wt %, line 2 of 3 (+)): 0 person
Number of subjects with ±, +, or ++ reactivity, 3rd (skin; 1 wt %, line 3 of 3 (++)): 0 person
Number of subjects with ±, +, or ++ reactivity, 4th (skin; 1 wt %, line 1 of 3 (±)): 0 person
Number of subjects with ±, +, or ++ reactivity, 4th (skin; 1 wt %, line 2 of 3 (+)): 0 person
Number of subjects with ±, +, or ++ reactivity, 4th (skin; 1 wt %, line 3 of 3 (++)): 0 person
Number of subjects with ±, +, or ++ reactivity, 5th (skin; 1 wt %, line 1 of 3 (±)): 0 person
Number of subjects with ±, +, or ++ reactivity, 5th (skin; 1 wt %, line 2 of 3 (+)): 0 person
Number of subjects with ±, +, or ++ reactivity, 5th (skin; 1 wt %, line 3 of 3 (++)): 0 person
Number of subjects with ±, +, or ++ reactivity, 6th (skin; 1 wt %, line 1 of 3 (±)): 0 person
Number of subjects with ±, +, or ++ reactivity, 6th (skin; 1 wt %, line 2 of 3 (+)): 0 person
Number of subjects with ±, +, or ++ reactivity, 6th (skin; 1 wt %, line 3 of 3 (++)): 0 person
Number of subjects with ±, +, or ++ reactivity, 7th (skin; 1 wt %, line 1 of 3 (±)): 0 person
Number of subjects with ±, +, or ++ reactivity, 7th (skin; 1 wt %, line 2 of 3 (+)): 0 person
Number of subjects with ±, +, or ++ reactivity, 7th (skin; 1 wt %, line 3 of 3 (++)): 0 person
Number of subjects with ±, +, or ++ reactivity, 8th (skin; 1 wt %, line 1 of 3 (±)): 0 person
Number of subjects with ±, +, or ++ reactivity, 8th (skin; 1 wt %, line 2 of 3 (+)): 0 person
Number of subjects with ±, +, or ++ reactivity, 8th (skin; 1 wt %, line 3 of 3 (++)): 0 person
Average reactivity (skin; 1 wt %): 0
Number of subjects with ±, +, or ++ reactivity, 9th (skin; 1 wt %, line 1 of 3 (±)): 0 person
Number of subjects with ±, +, or ++ reactivity, 9th (skin; 1 wt %, line 2 of 3 (+)): 0 person
Number of subjects with ±, +, or ++ reactivity, 9th (skin; 1 wt %, line 3 of 3 (++)): 0 person
Number of subjects with ±, +, or ++ reactivity, 1st (skin; 3 wt %, line 1 of 3 (±)): 0 person
Number of subjects with ±, +, or ++ reactivity, 1st (skin; 3 wt %, line 2 of 3 (+)): 0 person
Number of subjects with ±, +, or ++ reactivity, 1st (skin; 3 wt %, line 3 of 3 (++)): 0 person
Number of subjects with ±, +, or ++ reactivity, 2nd (skin; 3 wt %, line 1 of 3 (±)): 0 person
Number of subjects with ±, +, or ++ reactivity, 2nd (skin; 3 wt %, line 2 of 3 (+)): 0 person
Number of subjects with ±, +, or ++ reactivity, 2nd (skin; 3 wt %, line 3 of 3 (++)): 0 person
Number of subjects with ±, +, or ++ reactivity, 3rd (skin; 3 wt %, line 1 of 3 (±)): 0 person
Number of subjects with ±, +, or ++ reactivity, 3rd (skin; 3 wt %, line 2 of 3 (+)): 0 person
Number of subjects with ±, +, or ++ reactivity, 3rd (skin; 3 wt %, line 3 of 3 (++)): 0 person
Number of subjects with ±, +, or ++ reactivity, 4th (skin; 3 wt %, line 1 of 3 (±)): 0 person
Number of subjects with ±, +, or ++ reactivity, 4th (skin; 3 wt %, line 2 of 3 (+)): 0 person
Number of subjects with ±, +, or ++ reactivity, 4th (skin; 3 wt %, line 3 of 3 (++)): 0 person
Number of subjects with ±, +, or ++ reactivity, 5th (skin; 3 wt %, line 1 of 3 (±)): 0 person
Number of subjects with ±, +, or ++ reactivity, 5th (skin; 3 wt %, line 2 of 3 (+)): 0 person
Number of subjects with ±, +, or ++ reactivity, 5th (skin; 3 wt %, line 3 of 3 (++)): 0 person
Number of subjects with ±, +, or ++ reactivity, 6th (skin; 3 wt %, line 1 of 3 (±)): 0 person
Number of subjects with ±, +, or ++ reactivity, 6th (skin; 3 wt %, line 2 of 3 (+)): 0 person
Number of subjects with ±, +, or ++ reactivity, 6th (skin; 3 wt %, line 3 of 3 (++)): 0 person
Number of subjects with ±, +, or ++ reactivity, 7th (skin; 3 wt %, line 1 of 3 (±)): 0 person
Number of subjects with ±, +, or ++ reactivity, 7th (skin; 3 wt %, line 2 of 3 (+)): 0 person
Number of subjects with ±, +, or ++ reactivity, 7th (skin; 3 wt %, line 3 of 3 (++)): 0 person
Number of subjects with ±, +, or ++ reactivity, 8th (skin; 3 wt %, line 1 of 3 (±)): 0 person
Number of subjects with ±, +, or ++ reactivity, 8th (skin; 3 wt %, line 2 of 3 (+)): 0 person
Number of subjects with ±, +, or ++ reactivity, 8th (skin; 3 wt %, line 3 of 3 (++)): 0 person
Average reactivity (skin; 3 wt %): 0
Number of subjects with ±, +, or ++ reactivity, 9th (skin; 3 wt %, line 1 of 3 (±)): 0 person
Number of subjects with ±, +, or ++ reactivity, 9th (skin; 3 wt %, line 2 of 3 (+)): 0 person
Number of subjects with ±, +, or ++ reactivity, 9th (skin; 3 wt %, line 3 of 3 (++)): 0 person

Reference: patent US10881599B2, “Whitening composition including novel kaempferol-based compound derived from post-fermented tea” (AMOREPACIFIC CORPORATION, priority 2017, dated 2021)
